{
  "source": "patent US12187717B2",
  "about": "“Compound and use thereof in treating autoimmune diseases” (PARENCHYMA BIOTECH INC., priority 2022, dated 2025)",
  "key": {"[1]": {"assay": "Pharmacokinetic parameters after oral or intravenous administration", "assay_type": "in vivo", "conditions": "rats", "method": "For rats, an oral administration group was fasted for 16 hours, and an intravenous administration group was subjected to intravenous administration with 10 mL/kg of solution prepared by completely dissolving Compound 6 in an ethanol-Cremophor EL mixture corresponding to 7.5% (v/v) of the administered dose, and then diluting in phosphate buffered saline so as to be the final ethanol:Cremophor EL:phosphate buffered saline (0.375:0.375:9.25, v/v/v), without fasting, at the dose concentration listed in Table 3. The oral administration group was supplied with food about 4 hours after administration. Blood collection was performed on the intravenous administration group after 0.083, 0.5, 1, 2, 4, 8, 24 hours from the administration and on the oral administration group after 0.5, 1, 2, 4, 8, 12, 24 hours from the administration, and plasma was recovered using centrifugation. In the recovered plasma, the drug concentration in the plasma was measured using UHPLC-MS/MS method."}, "[2]": {"assay": "pH-metric solubility and logP (SIRIUS T3)", "assay_type": "physicochemical", "conditions": "pH-metric results, SIRIUS T3", "method": "After dissolving Compound 6 in ethanol, the solubility was measured and analyzed using a SIRIUS T3 machine."}, "CYP1A2": {"target": "T1, CYP1A2 (Homo sapiens, UniProt P05177)", "T1 sequence (P05177 1-516)": "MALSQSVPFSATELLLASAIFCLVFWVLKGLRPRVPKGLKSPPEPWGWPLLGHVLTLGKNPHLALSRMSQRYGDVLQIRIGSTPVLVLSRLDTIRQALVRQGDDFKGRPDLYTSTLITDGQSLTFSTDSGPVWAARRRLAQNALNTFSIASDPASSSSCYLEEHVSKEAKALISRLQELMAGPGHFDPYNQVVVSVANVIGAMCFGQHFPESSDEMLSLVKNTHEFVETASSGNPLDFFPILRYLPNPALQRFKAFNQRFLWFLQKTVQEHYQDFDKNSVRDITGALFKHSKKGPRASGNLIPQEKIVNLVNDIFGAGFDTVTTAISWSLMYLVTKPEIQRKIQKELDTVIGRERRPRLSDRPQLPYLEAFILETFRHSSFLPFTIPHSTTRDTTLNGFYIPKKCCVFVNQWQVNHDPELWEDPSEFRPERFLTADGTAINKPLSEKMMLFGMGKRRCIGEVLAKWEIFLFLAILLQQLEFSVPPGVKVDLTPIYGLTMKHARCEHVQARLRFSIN", "assay": "CYP isoenzyme activity", "assay_type": "in vitro ADME", "conditions": "10 μM"}, "CYP2C9": {"target": "CYP2C9 (Homo sapiens, UniProt P11712)", "sequence (P11712 whole entry)": "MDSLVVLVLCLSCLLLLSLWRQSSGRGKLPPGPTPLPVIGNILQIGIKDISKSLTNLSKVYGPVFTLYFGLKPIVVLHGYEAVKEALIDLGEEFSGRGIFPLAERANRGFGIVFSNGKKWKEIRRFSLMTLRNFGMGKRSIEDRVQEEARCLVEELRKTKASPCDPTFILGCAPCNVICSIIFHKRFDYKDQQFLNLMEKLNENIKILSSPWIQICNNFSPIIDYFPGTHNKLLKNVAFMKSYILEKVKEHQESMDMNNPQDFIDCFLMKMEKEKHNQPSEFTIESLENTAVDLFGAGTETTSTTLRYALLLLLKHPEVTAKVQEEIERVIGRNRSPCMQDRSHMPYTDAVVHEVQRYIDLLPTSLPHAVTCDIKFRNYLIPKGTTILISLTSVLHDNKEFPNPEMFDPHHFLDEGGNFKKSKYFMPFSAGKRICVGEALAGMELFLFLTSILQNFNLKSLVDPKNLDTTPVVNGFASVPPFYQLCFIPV", "assay": "CYP isoenzyme activity", "assay_type": "in vitro ADME", "conditions": "10 μM"}, "CYP2C19": {"target": "CYP2C19 (Homo sapiens, UniProt P33261)", "sequence (P33261 whole entry)": "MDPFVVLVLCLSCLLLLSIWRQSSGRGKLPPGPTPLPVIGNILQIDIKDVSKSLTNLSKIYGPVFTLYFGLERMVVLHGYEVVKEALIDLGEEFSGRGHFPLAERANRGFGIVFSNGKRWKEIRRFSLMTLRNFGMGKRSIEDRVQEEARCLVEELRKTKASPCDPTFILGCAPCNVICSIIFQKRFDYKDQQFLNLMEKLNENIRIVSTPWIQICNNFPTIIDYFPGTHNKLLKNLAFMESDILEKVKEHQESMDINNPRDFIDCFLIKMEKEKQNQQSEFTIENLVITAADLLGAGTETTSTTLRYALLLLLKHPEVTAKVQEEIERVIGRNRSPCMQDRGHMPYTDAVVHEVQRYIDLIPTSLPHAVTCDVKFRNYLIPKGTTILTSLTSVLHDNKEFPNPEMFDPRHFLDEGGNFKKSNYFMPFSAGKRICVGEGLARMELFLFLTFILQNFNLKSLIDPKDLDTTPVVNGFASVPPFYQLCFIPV", "assay": "CYP isoenzyme activity", "assay_type": "in vitro ADME", "conditions": "10 μM"}, "CYP3A4": {"target": "CYP3A4 (Homo sapiens, UniProt P08684)", "sequence (P08684 whole entry)": "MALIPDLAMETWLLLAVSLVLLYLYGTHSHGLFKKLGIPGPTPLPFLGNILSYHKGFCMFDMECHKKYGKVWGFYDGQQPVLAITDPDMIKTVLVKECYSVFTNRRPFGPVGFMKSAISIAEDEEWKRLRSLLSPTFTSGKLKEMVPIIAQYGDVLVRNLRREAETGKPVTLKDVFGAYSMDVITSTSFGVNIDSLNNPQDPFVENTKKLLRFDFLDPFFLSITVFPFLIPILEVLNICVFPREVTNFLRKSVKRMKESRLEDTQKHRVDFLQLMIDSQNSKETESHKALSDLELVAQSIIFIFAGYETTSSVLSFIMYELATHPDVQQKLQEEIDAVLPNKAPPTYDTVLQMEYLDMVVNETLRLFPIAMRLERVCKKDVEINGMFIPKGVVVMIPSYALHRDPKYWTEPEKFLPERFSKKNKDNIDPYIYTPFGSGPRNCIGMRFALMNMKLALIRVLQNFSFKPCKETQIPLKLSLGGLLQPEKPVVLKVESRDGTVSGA", "conditions": "2 days, 10 μM", "method": "Live human hepatocyte cell lines (Corning, Cat No. 454551) were collected using a plating medium, seeded on a 24-well plate so that a cell density thereof was 0.4×10^6 cells/well, and cultured for 2 to 4 hours. After replacing the plating medium with a hepatocyte culture medium, the hepatocytes were cultured for 24 hours. After culturing for 24 hours, hepatocytes were treated with Compound 6 at 1, 5, 25 µM. The medium containing the compound was changed every 24 hours for 2 days. The cultured cells were recovered to prepare mRNA samples. mRNA was extracted from the recovered cells by a phenol-chloroform sedimentation method using TRIZOL reagent (Invitrogen, Cat No. 15596018). From the isolated RNA, cDNA was synthesized by reverse transcription, followed by measuring drug metabolizing enzymes CYP1A2, CYP2C9, CYP2C19, CYP2B6, and CYP3A4 through real-time PCR analysis using the Quant Studio™ 7 Flex Real-Time PCR System (Applied Biosystems, CA). Relative values of the enzyme expression levels were compared by the ΔΔct method using GAPDH as a control enzyme. Herein, one (1) fold was set using the control. Results are expressed as % of control compared to control sample."}, "CYP2D6": {"target": "CYP2D6 (Homo sapiens, UniProt P10635)", "sequence (P10635 whole entry)": "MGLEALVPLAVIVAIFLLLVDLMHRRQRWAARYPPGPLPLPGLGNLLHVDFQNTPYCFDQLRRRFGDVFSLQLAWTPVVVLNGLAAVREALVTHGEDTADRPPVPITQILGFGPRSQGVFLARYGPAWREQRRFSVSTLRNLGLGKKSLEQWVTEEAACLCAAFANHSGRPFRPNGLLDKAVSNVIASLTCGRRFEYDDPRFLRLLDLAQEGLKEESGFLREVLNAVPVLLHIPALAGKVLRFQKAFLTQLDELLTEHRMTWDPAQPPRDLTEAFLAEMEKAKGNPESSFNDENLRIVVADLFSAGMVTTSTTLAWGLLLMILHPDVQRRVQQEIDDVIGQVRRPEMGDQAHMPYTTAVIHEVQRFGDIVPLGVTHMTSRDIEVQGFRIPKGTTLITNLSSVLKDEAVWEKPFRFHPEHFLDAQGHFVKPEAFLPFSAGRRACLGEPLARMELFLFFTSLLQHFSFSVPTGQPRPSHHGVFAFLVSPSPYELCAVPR", "conditions": "2 days, 10 μM"}, "[3]": {"conditions": "rat, plasma, Intravenous (IV), 1 mg/kg"}, "[4]": {"conditions": "rat, plasma, Oral (PO), 10 mg/kg"}, "[5]": {"conditions": "rat, plasma, Oral (PO), 100 mg/kg"}, "[6]": {"conditions": "Oral (PO), 10 mg/kg (reference dose, dose ratio 1)"}, "[7]": {"conditions": "Oral (PO), 100 mg/kg relative to 10 mg/kg (dose ratio 10.0)"}},
  "data": [
    {"smiles": "O=C(Cc1c[nH]c2ccc(Cl)cc12)Nc1nc2ccccc2s1", "note": "[Comparative Example 1, N-(benzo[d]thiazol-2-yl)-2-(5-chloro-1H-indol-3-yl)acetamide, reference compound]", "values": [
      {"measurement": "AUC(0-t)", "setting": "[1]; [3]", "value": 0.183, "unit": "µg·h/mL"},
      {"measurement": "C0", "setting": "[1]; [3]", "value": 0.406, "unit": "µg/mL"},
      {"measurement": "clearance", "setting": "[1]; [3]", "value": 0.43, "unit": "L/h/kg"},
      {"measurement": "half-life", "setting": "[1]; [3]", "value": 48, "unit": "min"},
      {"measurement": "Vd", "setting": "[1]; rat, plasma, Intravenous (IV), 1 mg/kg, read-out: Vdss", "value": 0.311, "unit": "L/kg"},
      {"measurement": "AUC(0-t)", "setting": "[1]; [4]", "value": 0.366, "unit": "µg·h/mL"},
      {"measurement": "Cmax", "setting": "[1]; [4]", "value": 0.126, "unit": "µg/mL"},
      {"measurement": "Tmax", "setting": "[1]; [4]", "value": 60, "unit": "min"},
      {"measurement": "half-life", "setting": "[1]; [4]", "value": 54, "unit": "min"},
      {"measurement": "bioavailability", "setting": "[1]; rat, plasma, Oral (PO), 10 mg/kg, read-out: Bioavailability (F %)", "value": 20, "unit": "%"},
      {"measurement": "AUC(0-t)", "setting": "[1]; [5]", "value": 0.644, "unit": "µg·h/mL"},
      {"measurement": "Cmax", "setting": "[1]; [5]", "value": 0.152, "unit": "µg/mL"},
      {"measurement": "Tmax", "setting": "[1]; [5]", "value": 30, "unit": "min"},
      {"measurement": "half-life", "setting": "[1]; [5]", "value": 408, "unit": "min"},
      {"measurement": "AUClast Ratio", "setting": "[1]; [6]", "value": 1.0},
      {"measurement": "Cmax ratio", "setting": "[1]; [6]", "value": 1.0},
      {"measurement": "AUClast Ratio", "setting": "[1]; [7]", "value": 1.8},
      {"measurement": "Cmax ratio", "setting": "[1]; [7]", "value": 1.2},
      {"measurement": "logP", "setting": "[2]", "value": 2.8},
      {"measurement": "pH-metric solubility, Molarity", "setting": "[2]", "value": 3.65, "unit": "μM"},
      {"measurement": "pH-metric solubility, Weight/ml", "setting": "[2]", "value": 1.248, "unit": "μg/ml"},
      {"measurement": "CYP1A2 activity", "setting": "CYP1A2", "value": "64.6 % of Control Activity"},
      {"measurement": "CYP2C9 activity", "setting": "CYP2C9", "value": "91.9 % of Control Activity"},
      {"measurement": "CYP2C19 activity", "setting": "CYP2C19", "value": "24.4 % of Control Activity"},
      {"measurement": "inhibition of the enzyme activity of CYP2C19", "setting": "CYP2C19", "value": 24.4, "unit": "%"},
      {"measurement": "CYP3A4 activity", "setting": "CYP3A4", "value": "107.6 % of Control Activity"},
      {"measurement": "CYP2D6 activity", "setting": "CYP2D6", "value": "93.3 % of Control Activity"}
    ]}
  ]
}
